Experimental data: patent US20250114460A1, “NOVEL PLK1 DEGRADATION INDUCING COMPOUND” (UPPTHERA, INC., priority 2021, published 2025)
pIC50: −log10 of the molar value.

Tests used:
Format in all cases: cell-based
PLK1 = target: T1, PLK1 (Homo sapiens, UniProt P53350); experiment: Luciferase assay for PLK1 in HeLa LgBit (Plk1-HiBit KI) cell line; conditions: 300 nM compound, luminescence after 9 hours
T1 construct: endogenous in cells; host or cells: HeLa LgBit (Plk1-HiBit KI): HeLa stably expressing LgBit, with a CRISPR/Cas9 knock-in of HiBit at the endogenous PLK1 locus
T1 sequence (P53350 whole entry): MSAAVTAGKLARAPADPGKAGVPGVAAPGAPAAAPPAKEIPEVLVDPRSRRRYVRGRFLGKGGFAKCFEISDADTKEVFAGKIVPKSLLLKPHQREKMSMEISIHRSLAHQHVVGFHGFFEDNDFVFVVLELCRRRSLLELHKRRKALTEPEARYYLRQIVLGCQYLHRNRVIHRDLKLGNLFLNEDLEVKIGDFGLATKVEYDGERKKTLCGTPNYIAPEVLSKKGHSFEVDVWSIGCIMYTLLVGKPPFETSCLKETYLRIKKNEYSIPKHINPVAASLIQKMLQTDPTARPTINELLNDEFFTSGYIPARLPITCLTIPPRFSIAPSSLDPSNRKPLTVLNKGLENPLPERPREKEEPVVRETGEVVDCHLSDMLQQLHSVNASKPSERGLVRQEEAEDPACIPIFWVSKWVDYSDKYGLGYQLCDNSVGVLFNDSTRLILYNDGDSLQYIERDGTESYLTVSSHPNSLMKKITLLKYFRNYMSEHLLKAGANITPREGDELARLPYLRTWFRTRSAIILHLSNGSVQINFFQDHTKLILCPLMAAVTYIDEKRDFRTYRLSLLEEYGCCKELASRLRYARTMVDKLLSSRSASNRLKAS
Outline: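 Luminescence, followed in real time after adding compound at 300 nM and Endurazine substrate, is reported relative to DMSO-treated wells. Cells are a HeLa LgBit line with a Plk1-HiBit knock-in, synchronized by 2 mM thymidine for 24 h, released, and cultured 18 h before treatment.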

NCI-H526 cell line = experiment: Cell viability assay for H526 cell (EZ-Cytox); conditions: Homo sapiens, NCI-H526, 120 h; H526 cells, 5 days, 3000 nM to 0.46 nM
Outline: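 Read-out was EZ-Cytox colorimetric absorbance at 450 nm, taken after brief plate shaking, with IC50 derived. Before reading, H526 cells had been cultured with test compound for 5 days.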

MRC-5 cell line = experiment: Cell viability assay for MRC-5 cell line (EZ-Cytox); conditions: Homo sapiens, MRC5, 120 h; MRC-5 normal cell line, 5 days, 10000 nM to 1.52 nM; N.D. = no cytotoxicity until 10 μM; read-out: Activity: IC50 value of Exemplary Compound to MRC-5 cell line
Protocol: 4. Cell Viability Assay for MRC-5 Cell Line
(1) Culture of MRC-5 Cell Line
Passage of cultured cells was maintained within P15.
(2) Treatment of Compounds of the Present Invention
Then, it was cultured in 37° C.
(3) Cytotoxicity Experiment
CO2 incubator for 4 hours.

**Q.** What does the source list for `COc1cc(C(=O)N[C@H]2CC[C@H](N3CCN(CCC4CCN(c5cccc6c5C(=O)N(C5CCC(=O)NC5=O)C6=O)CC4)CC3)CC2)c(F)cc1Nc1ncc2c(n1)N(C1CCCC1)CC(F)(F)C(=O)N2C` (stereo partly drawn) [Compound 114, 4-((9-cyclopentyl-7,7-difluoro-5-methyl-6-oxo-6,7,8,9-tetrahydro-5H-pyrimido[4,5-b][1,4]diazepin-2-yl)amino)-N-((1r,4r)-4-(4-(2-(1-(2-(2,6-dioxopiperidin-3-yl)-1,3-dioxoisoindolin-4-yl)piperidin-4-yl)ethyl)piperazin-1-yl)cyclohexyl)-2-fluoro-5-methoxybenzamide]?
**A.** Activity: ratio of the luminescense value of each Exemplary Compound treatment group to DMSO treatment group (PLK1): ++ (++<0.6); pIC50 (NCI-H526 cell line): > 6.70; pIC50 (MRC-5 cell line): < 5.00

**Q.** For `COc1cc(C(=O)N[C@H]2CC[C@H](OC3CCN(c4cccc5c4C(=O)N(C4CCC(=O)NC4=O)C5=O)CC3)CC2)c(F)cc1Nc1ncc2c(n1)N(C1CCCC1)CC(F)(F)C(=O)N2C` (stereo partly drawn) [Compound 115, 4-((9-cyclopentyl-7,7-difluoro-5-methyl-6-oxo-6,7,8,9-tetrahydro-5H-pyrimido[4,5-b][1,4]diazepin-2-yl)amino)-N-((1r,4r)-4-((1-(2-(2,6-dioxopiperidin-3-yl)-1,3-dioxoisoindolin-4-yl)piperidin-4-yl)oxy)cyclohexyl)-2-fluoro-5-methoxybenzamide], which “Activity: ratio of the luminescense value of each Exemplary Compound treatment group to DMSO treatment group” value (shortened to “Activity: ratio”) (PLK1) is on record?
**A.** The value was “++ (++<0.6)”.

**Q.** And the pIC50 (NCI-H526 cell line)?
**A.** Its pIC50 is greater than 6.40.

**Q.** What about the pIC50 (MRC-5 cell line) of the same compound?
**A.** Its pIC50 is less than 5.00.

**Q.** With `CN1C(=O)C(F)(F)CN(C2CCCC2)c2nc(Nc3ccc(C(=O)NC4CCN(C(=O)CCN5CCN(c6cccc7c6C(=O)N(C6CCC(=O)NC6=O)C7=O)CC5)CC4)cc3F)ncc21` (stereo not drawn) [Compound 118, 4-((9-cyclopentyl-7,7-difluoro-5-methyl-6-oxo-6,7,8,9-tetrahydro-5H-pyrimido[4,5-b][1,4]diazepin-2-yl)amino)-N-(1-(3-(4-(2-(2,6-dioxopiperidin-3-yl)-1,3-dioxoisoindolin-4-yl)piperazin-1-yl)propanoyl)piperidin-4-yl)-3-fluorobenzamide] as the compound, how does the “Activity: ratio” value (PLK1) read?
**A.** Its value is “++ (++<0.6)”.

**Q.** And the pIC50 (NCI-H526 cell line)?
**A.** The pIC50 was greater than 7.30.

**Q.** What about the pIC50 (MRC-5 cell line) of the same compound?
**A.** The pIC50 was less than 5.00.

**Q.** `COc1cc(C(=O)NC2CCN(C(=O)CCN3CCN(c4cccc5c4C(=O)N(C4CCC(=O)NC4=O)C5=O)CC3)CC2)c(C(F)(F)F)cc1Nc1ncc2c(n1)N(C1CCCC1)CC(F)(F)C(=O)N2C` (stereo not drawn) [Compound 119, 4-((9-cyclopentyl-7,7-difluoro-5-methyl-6-oxo-6,7,8,9-tetrahydro-5H-pyrimido[4,5-b][1,4]diazepin-2-yl)amino)-N-(1-(3-(4-(2-(2,6-dioxopiperidin-3-yl)-1,3-dioxoisoindolin-4-yl)piperazin-1-yl)propanoyl)piperidin-4-yl)-5-methoxy-2-(trifluoromethyl) benzamide] was tested. Which “Activity: ratio” value (PLK1) did it give?
**A.** Its value is “++ (++<0.6)”.

**Q.** And the pIC50 (NCI-H526 cell line)?
**A.** Its pIC50 is greater than 6.70.

**Q.** And the pIC50 (MRC-5 cell line)?
**A.** Its pIC50 is less than 5.00.

**Q.** For `COc1cc(C(=O)NC2CCN(C(=O)CCN3CCN(c4cccc5c4C(=O)N(C4CCC(=O)NC4=O)C5=O)CC3)CC2)ccc1Nc1ncc2c(n1)N(C1CCCC1)CC1(CC1)C(=O)N2C` (stereo not drawn) [Compound 120, 4-((9′-cyclopentyl-5′-methyl-6′-oxo-5′,6′,8′,9′-tetrahydrospiro[cyclopropane-1,7′-pyrimido[4,5-b][1,4]diazepin]-2′-yl)amino)-N-(1-(3-(4-(2-(2,6-dioxopiperidin-3-yl)-1,3-dioxoisoindolin-4-yl)piperazin-1-yl)propanoyl)piperidin-4-yl)-3-methoxybenzamide], which “Activity: ratio” value (PLK1) is on record?
**A.** Its value is “+++ (+++: <0.3)”.

**Q.** And the pIC50 (NCI-H526 cell line)?
**A.** Its pIC50 is greater than 7.30.

**Q.** What about the pIC50 (MRC-5 cell line) of the same compound?
**A.** Its pIC50 is less than 5.00.

**Q.** What does the source list for `COc1cc(C(=O)NC2CCN(C(=O)CCN3CCN(c4cccc5c4C(=O)N(C4CCC(=O)NC4=O)C5=O)CC3)CC2)ccc1Nc1ncc2c(n1)N(C1CCCC1)CC(C)(C)C(=O)N2C` (stereo not drawn) [Compound 121, 4-((9-cyclopentyl-5,7,7-trimethyl-6-oxo-6,7,8,9-tetrahydro-5H-pyrimido[4,5-b][1,4]diazepin-2-yl)amino)-N-(1-(3-(4-(2-(2,6-dioxopiperidin-3-yl)-1,3-dioxoisoindolin-4-yl)piperazin-1-yl)propanoyl)piperidin-4-yl)-3-methoxybenzamide]?
**A.** Activity: ratio of the luminescense value of each Exemplary Compound treatment group to DMSO treatment group (PLK1): ++ (++<0.6); pIC50 (NCI-H526 cell line): > 6.70; pIC50 (MRC-5 cell line): < 5.00

**Q.** `COc1cc(C(=O)NC2CCCN(C(=O)CCN3CCN(c4cccc5c4C(=O)N(C4CCC(=O)NC4=O)C5=O)CC3)C2)ccc1Nc1ncc2c(n1)N(C1CCCC1)CC(F)(F)C(=O)N2C` (stereo not drawn) [Compound 123, 4-((9-cyclopentyl-7,7-difluoro-5-methyl-6-oxo-6,7,8,9-tetrahydro-5H-pyrimido[4,5-b][1,4]diazepin-2-yl)amino)-N-(1-(3-(4-(2-(2,6-dioxopiperidin-3-yl)-1,3-dioxoisoindolin-4-yl)piperazin-1-yl)propanoyl)piperidin-3-yl)-3-methoxybenzamide] was tested. Which “Activity: ratio” value (PLK1) did it give?
**A.** The value was “++ (++<0.6)”.

**Q.** And the pIC50 (NCI-H526 cell line)?
**A.** Its pIC50 is greater than 7.00.

**Q.** What about the pIC50 (MRC-5 cell line) of the same compound?
**A.** The pIC50 was less than 5.00.

**Q.** How did the “Activity: ratio” value (PLK1) turn out when `COc1cc(C(=O)NN2CCC(CN3CCN(c4cccc5c4C(=O)N(C4CCC(=O)NC4=O)C5=O)CC3)CC2)ccc1Nc1ncc2c(n1)N(C1CCCC1)CC(F)(F)C(=O)N2C` (stereo not drawn) [Compound 124, 4-((9-cyclopentyl-7,7-difluoro-5-methyl-6-oxo-6,7,8,9-tetrahydro-5H-pyrimido[4,5-b][1,4]diazepin-2-yl)amino)-N-(4-((4-(2-(2,6-dioxopiperidin-3-yl)-1,3-dioxoisoindolin-4-yl)piperazin-1-yl)methyl)piperidin-1-yl)-3-methoxybenzamide] was run?
**A.** The value was “++ (++<0.6)”.

**Q.** What about the pIC50 (NCI-H526 cell line) of the same compound?
**A.** Its pIC50 is greater than 7.52.

**Q.** And the pIC50 (MRC-5 cell line)?
**A.** The pIC50 was less than 5.00.

**Q.** Which results are given for `COc1cc(C(=O)N[C@H]2CC[C@@H](N(C)CCN3CCN(c4cccc5c4C(=O)N(C4CCC(=O)NC4=O)C5=O)CC3)CC2)ccc1Nc1ncc2c(n1)N(C1CCCC1)CC(F)(F)C(=O)N2C` (stereo partly drawn) [Compound 128, 4-((9-cyclopentyl-7,7-difluoro-5-methyl-6-oxo-6,7,8,9-tetrahydro-5H-pyrimido[4,5-b][1,4]diazepin-2-yl)amino)-N-((1s,4s)-4-((2-(4-(2-(2,6-dioxopiperidin-3-yl)-1,3-dioxoisoindolin-4-yl)piperazin-1-yl)ethyl)(methyl)amino)cyclohexyl)-3-methoxybenzamide]?
**A.** Activity: ratio of the luminescense value of each Exemplary Compound treatment group to DMSO treatment group (PLK1): ++ (++<0.6); pIC50 (NCI-H526 cell line): > 7.30; pIC50 (MRC-5 cell line): 4.73

**Q.** Which results are given for `COc1cc(C(=O)N[C@H]2CC[C@H](N(C)CCN3CCN(c4cccc5c4C(=O)N(C4CCC(=O)NC4=O)C5=O)CC3)CC2)ccc1Nc1ncc2c(n1)N(C1CCCC1)CC(F)(F)C(=O)N2C` (stereo partly drawn) [Compound 129, 4-((9-cyclopentyl-7,7-difluoro-5-methyl-6-oxo-6,7,8,9-tetrahydro-5H-pyrimido[4,5-b][1,4]diazepin-2-yl)amino)-N-((1r,4r)-4-((2-(4-(2-(2,6-dioxopiperidin-3-yl)-1,3-dioxoisoindolin-4-yl)piperazin-1-yl)ethyl)(methyl)amino)cyclohexyl)-3-methoxybenzamide]?
**A.** Activity: ratio of the luminescense value of each Exemplary Compound treatment group to DMSO treatment group (PLK1): +++ (+++: <0.3); pIC50 (NCI-H526 cell line): > 7.52; pIC50 (MRC-5 cell line): 4.76

**Q.** Which “Activity: ratio” value (PLK1) does the source give for `COc1cc(C(=O)NC2CCN(C(=O)CCN3CCN(c4ccc5c(c4)CN(C4CCC(=O)NC4=O)C5=O)CC3)CC2)ccc1Nc1ncc2c(n1)N(C(C)C)CC(F)(F)C(=O)N2C` (stereo not drawn) [Compound 130, 4-((7,7-difluoro-9-isopropyl-5-methyl-6-oxo-6,7,8,9-tetrahydro-5H-pyrimido[4,5-b][1,4]diazepin-2-yl)amino)-N-(1-(3-(4-(2-(2,6-dioxopiperidin-3-yl)-1-oxoisoindolin-5-yl)piperazin-1-yl)propanoyl)piperidin-4-yl)-3-methoxybenzamide] here?
**A.** Its value is “++ (++<0.6)”.

**Q.** And the pIC50 (NCI-H526 cell line)?
**A.** Its pIC50 is greater than 7.52.

**Q.** What about the pIC50 (MRC-5 cell line) of the same compound?
**A.** Its pIC50 is less than 5.00.

**Q.** With `COc1cc(C(=O)N[C@H]2CC[C@H](N3CCN(c4cccc5c4C(=O)N(C4CCC(=O)NC4=O)C5=O)CC3)CC2)ccc1Nc1ncc2c(n1)N(C1CCCC1)CC(F)(F)C(=O)N2C` (stereo partly drawn) [Compound 131, 4-((9-cyclopentyl-7,7-difluoro-5-methyl-6-oxo-6,7,8,9-tetrahydro-5H-pyrimido[4,5-b][1,4]diazepin-2-yl)amino)-N-((1r,4r)-4-(4-(2-(2,6-dioxopiperidin-3-yl)-1,3-dioxoisoindolin-4-yl)piperazin-1-yl)cyclohexyl)-3-methoxybenzamide] as the compound, how does the “Activity: ratio” value (PLK1) read?
**A.** The value was “++ (++<0.6)”.

**Q.** And the pIC50 (NCI-H526 cell line)?
**A.** Its pIC50 is greater than 7.30.

**Q.** And the pIC50 (MRC-5 cell line)?
**A.** The pIC50 was less than 5.00.

**Q.** For `COc1cc(C(=O)NC2CCN(C(=O)CCN3CCN(c4cccc5c4CN(C4CCC(=O)NC4=O)C5=O)CC3)CC2)ccc1Nc1ncc2c(n1)N(C(C)C)CC(F)(F)C(=O)N2C` (stereo not drawn) [Compound 133, 4-((7,7-difluoro-9-isopropyl-5-methyl-6-oxo-6,7,8,9-tetrahydro-5H-pyrimido[4,5-b][1,4]diazepin-2-yl)amino)-N-(1-(3-(4-(2-(2,6-dioxopiperidin-3-yl)-1-oxoisoindolin-4-yl)piperazin-1-yl)propanoyl)piperidin-4-yl)-3-methoxybenzamide], which “Activity: ratio” value (PLK1) is on record?
**A.** Its value is “++ (++<0.6)”.

**Q.** And the pIC50 (NCI-H526 cell line)?
**A.** Its pIC50 is greater than 7.30.

**Q.** And the pIC50 (MRC-5 cell line)?
**A.** The pIC50 was less than 5.00.
